From patent US20260083865A1, “PROSTATE SPECIFIC MEMBRANE ANTIGEN (PSMA) LIGANDS AND USE THEREOF” (priority 2022, published 2026)
Like-named read-outs stand apart in the source and are kept apart here. Numbered stars: 1 amine (or outer) side, 2 acyl side, 3 side chain; on linkers, the order of the positions; unused ones are H or OH. Bridge positions count the residues as written; N and C are the ends. Square brackets hold non-standard residues; d marks the D form. Peptide text beside a SMILES is read from it. * marks the point of attachment. TtdsdLys(DOTA)NH2 = NC(=O)[C@@H](CCCCNC(=O)CN1CCN(CC(=O)O)CCN(CC(=O)O)CCN(CC(=O)O)CC1)NC(=O)CCC(=O)NCCCOCCOCCOCCCN*; Acetyl(1-DOTA-4-piperidyl) = O=C(O)CN1CCN(CC(=O)O)CCN(CC(=O)N2CCC(CC(=O)*)CC2)CCN(CC(=O)O)CC1; DOTA = O=C(O)CN1CCN(CC(=O)O)CCN(CC(=O)*)CCN(CC(=O)O)CC1; Lys(Me3) = C[N+](C)(C)CCCC[C@H](N)C(=O)O; Phe(3-Cl) = N[C@@H](Cc1cccc(Cl)c1)C(=O)O; Phe(4-Cl) = N[C@@H](Cc1ccc(Cl)cc1)C(=O)O; Arg(Me) = CNC(=N)NCCC[C@H](N)C(=O)O; Dap(CONH2) = NC(=O)NC[C@H](N)C(=O)O; hPhe = N[C@@H](CCc1ccccc1)C(=O)O; X1 = O=C(CC1CCN([*:1])CC1)[*:2]; Cit = NC(=O)NCCC[C@H](N)C(=O)O; Tle = CC(C)(C)[C@H](N)C(=O)O; Hexanoyl = CCCCCC(=O)*; Aib = CC(C)(N)C(=O)O

Legend:
[1] = biological target: T1, Fc-fusion protein of human PSMA (hPSMA-Fc) (Homo sapiens, UniProt Q04609); assay: Surface plasmon resonance assay (Biacore T200, single cycle kinetic); format: binding; settings: hPSMA-Fc, 25° C., read-out: pKD CAT (converted)
T1 construct: purchased Acro Biosystems PSA-H5264
Method in brief: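 KD, expressed as pKD, came from 1:1 Langmuir fits of reference- and buffer-blank-subtracted SPR data. The runs were single-cycle kinetics at 25° C in HBST/0.1% DMSO over human PSMA-Fc, captured to ~1000 RU on a peptide-coated CM5 surface and regenerated with 10 mM glycine pH 1.5.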

[2] = biological target: T2, PSMA-expressing C4-2 cells (Homo sapiens, UniProt Q04609); assay: FACS binding assay (competition with 50 nM PSM-0183); settings: read-out: pIC50 [C4-2] CAT (converted)
T2 construct: PSMA-expressing C4-2 cells (ATCC, Cat. No. CRL-3314) were cultured in RPMI-1640; host or cells: C4-2 cells
Method in brief: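 Competition format: fluorescent tracer PSM-0183 (50 nM) displaced from PSMA on C4-2 cells by a test compound titration over 1 h at 4 °C. Bound tracer was quantified as flow-cytometric AF488 median fluorescence after washing. Four-parameter logistic fits of MFI data gave IC50 and pIC50.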

[3] = pKD category for PSMA SPR activity assay
[4] = pIC50 category of FACS binding, C4-2 cells
[5] = FACS binding, PSMA-expressing C4-2 cells, pIC50 category

T2 sequence (Q04609 whole entry): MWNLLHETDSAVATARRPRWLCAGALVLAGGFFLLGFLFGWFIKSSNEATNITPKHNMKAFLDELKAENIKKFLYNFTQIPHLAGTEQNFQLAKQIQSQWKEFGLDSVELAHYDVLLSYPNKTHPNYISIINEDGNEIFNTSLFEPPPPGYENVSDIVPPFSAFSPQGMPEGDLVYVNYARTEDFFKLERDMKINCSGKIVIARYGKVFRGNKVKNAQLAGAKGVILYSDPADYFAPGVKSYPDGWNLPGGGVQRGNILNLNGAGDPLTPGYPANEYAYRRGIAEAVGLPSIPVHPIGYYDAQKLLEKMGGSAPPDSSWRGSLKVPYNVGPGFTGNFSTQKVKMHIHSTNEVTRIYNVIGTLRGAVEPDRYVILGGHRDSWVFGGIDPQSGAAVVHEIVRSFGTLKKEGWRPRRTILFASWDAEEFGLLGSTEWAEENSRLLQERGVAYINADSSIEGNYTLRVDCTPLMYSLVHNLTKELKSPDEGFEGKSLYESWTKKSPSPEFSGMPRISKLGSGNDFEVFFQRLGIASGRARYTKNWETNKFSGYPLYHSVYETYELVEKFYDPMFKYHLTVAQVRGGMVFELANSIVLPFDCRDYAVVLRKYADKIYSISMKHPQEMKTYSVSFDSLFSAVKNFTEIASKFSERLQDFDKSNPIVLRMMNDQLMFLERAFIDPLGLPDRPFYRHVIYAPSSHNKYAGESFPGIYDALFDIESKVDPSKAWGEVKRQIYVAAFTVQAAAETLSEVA
T1 sequence (Q04609 44-750 limits assumed): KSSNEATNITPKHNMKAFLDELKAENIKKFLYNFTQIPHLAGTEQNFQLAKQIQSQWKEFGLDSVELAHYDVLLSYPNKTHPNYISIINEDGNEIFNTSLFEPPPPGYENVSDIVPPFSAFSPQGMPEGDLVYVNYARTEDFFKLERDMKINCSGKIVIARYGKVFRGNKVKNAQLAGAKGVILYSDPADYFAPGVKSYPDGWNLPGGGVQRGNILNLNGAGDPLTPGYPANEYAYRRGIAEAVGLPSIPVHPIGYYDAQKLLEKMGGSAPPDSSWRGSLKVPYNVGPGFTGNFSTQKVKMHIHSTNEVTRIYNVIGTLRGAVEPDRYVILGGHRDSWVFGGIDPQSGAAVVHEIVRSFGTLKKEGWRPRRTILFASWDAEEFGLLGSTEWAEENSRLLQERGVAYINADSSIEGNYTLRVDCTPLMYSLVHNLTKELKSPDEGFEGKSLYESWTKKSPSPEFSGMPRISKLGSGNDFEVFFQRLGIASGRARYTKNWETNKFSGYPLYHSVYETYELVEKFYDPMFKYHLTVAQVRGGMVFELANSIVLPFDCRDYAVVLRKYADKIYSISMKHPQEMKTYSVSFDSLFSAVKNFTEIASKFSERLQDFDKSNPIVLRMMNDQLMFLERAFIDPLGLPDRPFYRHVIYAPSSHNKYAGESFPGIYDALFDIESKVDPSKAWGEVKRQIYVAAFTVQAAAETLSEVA

Kd [1, 3] [µM] | IC50 [2, 4] [µM] | Compound | other results
0.0126 to 0.126 | < 0.2 | CNC(=N)NCCC[C@@H]1NC(=O)[C@H](CCCC[N+](C)(C)C)NC(=O)[C@@H](NC(=O)[C@H](Cc2ccc(Cl)cc2)NC(=O)C(C)(C)NC(=O)[C@@H](NC(=O)CC2CCN(C(=O)CN3CCN(CC(=O)O)CCN(CC(=O)O)CCN(CC(=O)O)CC3)CC2)[C@@H](C)O)CSSC[C@@H](C(=O)N[C@H](C(=O)N[C@H](C(N)=O)[C@@H](C)O)C(C)(C)C)NC(=O)[C@H](CC(N)=O)NC(=O)C(C)(C)NC1=O [PSM-0483, DOTA-Cmp-Thr-Aib-Pcf-[Cys-KMe3-Arg(Me)-Aib-Asn-Cys]-Tle-Thr-NH2] ({DOTA}-[X1]T[Aib][Phe(4-Cl)]C[Lys(Me3)][Arg(Me)][Aib]NC[Tle]T-NH2; disulfide 5-10) | –
0.0126 to 0.126 | < 0.2 | CCCC[C@H](NC(=O)[C@@H]1CSSC[C@H](NC(=O)[C@H](Cc2ccccc2)NC(=O)[C@H](C)NC(=O)[C@@H](NC(C)=O)[C@@H](C)O)C(=O)N[C@@H](CCCCN)C(=O)N[C@@H](CCCNC(=N)N)C(=O)N[C@@H](C)C(=O)N[C@@H](CC(N)=O)C(=O)N1)C(=O)N[C@H](C(=O)N[C@H](CC(=O)O)C(N)=O)[C@@H](C)O [PSM-0389, Ac-Thr-Ala-Phe-[Cys-Lys-Arg-Ala-Asn-Cys]-Nle-Thr-asp-NH2] | –
– | – | CC(=O)N[C@H](C(=O)NC(C)(C)C(=O)N[C@@H](Cc1cccc(Cl)c1)C(=O)N[C@H]1CSSC[C@@H](C(=O)N[C@H](C(=O)N[C@H](C(=O)N2CCC(CC(=O)N[C@H](CCCCNC(=O)CN3CCN(CC(=O)O)CCN(CC(=O)O)CCN(CC(=O)O)CC3)C(N)=O)CC2)[C@@H](C)O)C(C)(C)C)NC(=O)[C@H](CC(N)=O)NC(=O)C(C)(C)NC(=O)[C@H](CCCNC(N)=O)NC(=O)[C@H](CCCCN)NC1=O)[C@@H](C)O [PSM-0275, Ac-Thr-Aib-Mcf-[Cys-Lys-Cit-Aib-Asn-Cys]-Tle-Thr-Cmp-lys(DOTA)-NH2] (Ac-T[Aib][Phe(3-Cl)]CK[Cit][Aib]NC[Tle]T[X1][dK](DOTA)-NH2; disulfide 4-9) | Kd ([1]; PSMA SPR assay, pKD category): 0.0126 to 0.126 µM; IC50 [2, 5]: 0.2 to 1.26 µM
– | – | CCCCCC(=O)N[C@H](C(=O)NC(C)(C)C(=O)N[C@@H](Cc1ccccc1)C(=O)N[C@H]1CSSC[C@@H](C(=O)N[C@H](C(=O)N[C@H](C(=O)NCCCOCCOCCOCCCNC(=O)CCC(=O)N[C@H](CCCCNC(=O)CN2CCN(CC(=O)O)CCN(CC(=O)O)CCN(CC(=O)O)CC2)C(N)=O)[C@@H](C)O)C(C)(C)C)NC(=O)[C@H](CC(N)=O)NC(=O)C(C)(C)NC(=O)[C@H](CCC(N)=O)NC(=O)[C@H](CCCCN)NC1=O)[C@@H](C)O [PSM-0289, Hex-Thr-Aib-Pho-[Cys-Lys-Gln-Aib-Asn-Cys]-Tle-Thr-Ttds-lys(DOTA)-NH2] (Hexanoyl-T[Aib]FCKQ[Aib]NC[Tle]T-{TtdsdLys(DOTA)NH2}; disulfide 4-9) | Kd ([1]; PSMA SPR assay, pKD category): 0.0126 to 0.126 µM; IC50 [2, 5]: 0.2 to 1.26 µM
0.0126 to 0.126 | < 0.2 | CC(=O)N[C@H](C(=O)NC(C)(C)C(=O)N[C@@H](Cc1ccccc1)C(=O)N[C@H]1CSSC[C@@H](C(=O)N[C@H](C(=O)N[C@H](C(N)=O)[C@@H](C)O)C(C)(C)C)NC(=O)[C@H](CC(N)=O)NC(=O)[C@H](CCCCNC(=O)CC2CCN(C(=O)CN3CCN(CC(=O)O)CCN(CC(=O)O)CCN(CC(=O)O)CC3)CC2)NC(=O)[C@H](CCCNC(=N)N)NC(=O)[C@H](CCCCN)NC1=O)[C@@H](C)O [PSM-0415, Ac-Thr-Aib-Phe-[Cys-Lys-Arg-Lys(DOTA-Cmp)-Asn-Cys]-Tle-Thr-NH2] (Ac-T[Aib]FCKRK(Acetyl(1-DOTA-4-piperidyl))NC[Tle]T-NH2; disulfide 4-9) | –
– | – | CC(=O)N[C@H](C(=O)NC(C)(C)C(=O)N[C@@H](Cc1ccccc1)C(=O)N[C@H]1CSSC[C@@H](C(=O)N[C@H](C(=O)N[C@H](C(=O)N[C@@H](CC(=O)O)C(N)=O)[C@@H](C)O)C(C)(C)C)NC(=O)[C@H](CC(N)=O)NC(=O)[C@H](C)NC(=O)[C@H](CNC(N)=O)NC(=O)[C@H](CCCCN)NC1=O)[C@@H](C)O [PSM-0180, Ac-Thr-Aib-Phe-[Cys-Lys-Gln-Ala-Asn-Cys]-Tle-Thr-Asp-NH2] (Ac-T[Aib]FCK[Dap(CONH2)]ANC[Tle]TD-NH2; disulfide 4-9) | Kd ([1]; SPR, single cycle kinetic, category): 0.0126 to 0.126 µM; IC50 ([2]; FACS binding, C4-2 cells, competition with 50 nM PSM-0183, category): < 0.2 µM
< 0.0126 | < 0.2 | CC(=O)N[C@H](C(=O)NC(C)(C)C(=O)N[C@@H](CCc1ccccc1)C(=O)N[C@H]1CSSC[C@@H](C(=O)N[C@H](C(=O)N[C@H](C(N)=O)[C@@H](C)O)C(C)(C)C)NC(=O)[C@H](CC(N)=O)NC(=O)C(C)(C)NC(=O)[C@H](CCCNC(=N)N)NC(=O)[C@H](CCCCN)NC1=O)[C@@H](C)O [PSM-0411, Ac-Thr-Aib-Hfe-[Cys-Lys-Arg-Aib-Asn-Cys]-Tle-Thr-NH2] (Ac-T[Aib][hPhe]CKR[Aib]NC[Tle]T-NH2; disulfide 4-9) | –
